How the values were obtained:
Assay in all cases: relative viability (nuclei count vs DMSO), 5 days (fraction); higher = more cells survive
LXF-289 = system: LXF-289
Method in brief: (§1)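 Five library-drug doses in √10 steps were combined with a fixed anchor-drug dose, or a single drug was given alone, by pin tool to lung cancer cell lines in 1536-well plates the day after seeding. Nuclei were stained and counted after 5 days. Relative viability is the nuclei count in treated wells over that in vehicle wells, taken as the median of duplicate plates.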

UMC-11 = system: UMC-11
Method in brief: as §1

COR-L23 = system: COR-L23
Method in brief: as §1

NCI-H358 = system: NCI-H358
Method in brief: as §1

NCI-H1993 = system: NCI-H1993
Method in brief: as §1

EKVX = system: EKVX
Method in brief: as §1

NCI-H1734 = system: NCI-H1734
Method in brief: as §1

LK-2 = system: LK-2
Method in brief: as §1

PC-14 = system: PC-14
Method in brief: as §1

NCI-H460 = system: NCI-H460
Method in brief: as §1

NCI-H1651 = system: NCI-H1651
Method in brief: as §1

NCI-H2087 = system: NCI-H2087
Method in brief: as §1

NCI-H2405 = conditions: first compound 0.253 µM
Method in brief: as §1

Work on `Nc1cccc2c1CN(C1CCC(=O)NC1=O)C2=O` (centres undefined) [Lenalidomide] + COc1cc2c(Oc3ccc(NC(=O)C4(C(=O)Nc5ccc(F)cc5)CC4)cc3F)ccnc2cc1OCCCN1CCOCC1 [Foretinib] (partner 0.25 µM) yielded a relative viability (LXF-289; first compound 0.253 µM) of 0.977, a relative viability (LXF-289; first compound 0.8 µM) of 1.01 and a relative viability (LXF-289; first compound 2.53 µM) of 1.07. It also gave a relative viability (LXF-289; first compound 8 µM) of 1.09, a relative viability (UMC-11; first compound 0.253 µM) of 1.02 and a relative viability (UMC-11; first compound 0.8 µM) of 1.07. The relative viability (UMC-11; first compound 2.53 µM) was 1.06, the relative viability (UMC-11; first compound 8 µM) was 0.953 and the relative viability (COR-L23; first compound 0.253 µM) was 0.897. For the same compound, the relative viability (COR-L23; first compound 0.8 µM) was 0.998, the relative viability (COR-L23; first compound 2.53 µM) was 1.08 and the relative viability (COR-L23; first compound 8 µM) was 1.15. The relative viability (NCI-H358; first compound 0.253 µM) was 0.47, the relative viability (NCI-H358; first compound 0.8 µM) was 0.987 and the relative viability (NCI-H358; first compound 2.53 µM) was 0.791. For the same compound, the relative viability (NCI-H358; first compound 8 µM) was 0.797, the relative viability (NCI-H1993; first compound 0.253 µM) was 0.739 and the relative viability (NCI-H1993; first compound 0.8 µM) was 0.658. For the same compound, the relative viability (NCI-H1993; first compound 2.53 µM) was 0.775, the relative viability (NCI-H1993; first compound 8 µM) was 0.707 and the relative viability (EKVX; first compound 0.253 µM) was 0.806. The relative viability (EKVX; first compound 0.8 µM) was 0.772, the relative viability (EKVX; first compound 2.53 µM) was 0.46 and the relative viability (EKVX; first compound 8 µM) was 0.932. For the same compound, the relative viability (NCI-H1734; first compound 0.253 µM) was 0.894, the relative viability (NCI-H1734; first compound 0.8 µM) was 0.776 and the relative viability (NCI-H1734; first compound 2.53 µM) was 0.932. It also gave a relative viability (NCI-H1734; first compound 8 µM) of 0.809, a relative viability (LK-2; first compound 0.253 µM) of 1.57 and a relative viability (LK-2; first compound 0.8 µM) of 1.17. For the same compound, the relative viability (LK-2; first compound 2.53 µM) was 1.24, the relative viability (LK-2; first compound 8 µM) was 0.847 and the relative viability (PC-14; first compound 0.253 µM) was 0.945. It also gave a relative viability (PC-14; first compound 0.8 µM) of 1.02, a relative viability (PC-14; first compound 2.53 µM) of 1.01 and a relative viability (PC-14; first compound 8 µM) of 0.982. It also gave a relative viability (NCI-H460; first compound 0.253 µM) of 0.964, a relative viability (NCI-H460; first compound 0.8 µM) of 1.02 and a relative viability (NCI-H460; first compound 2.53 µM) of 1.14. It also gave a relative viability (NCI-H460; first compound 8 µM) of 1.07, a relative viability (NCI-H1651; first compound 0.253 µM) of 0.837 and a relative viability (NCI-H1651; first compound 0.8 µM) of 0.963. It also gave a relative viability (NCI-H1651; first compound 2.53 µM) of 0.914, a relative viability (NCI-H1651; first compound 8 µM) of 0.804 and a relative viability (NCI-H2087; first compound 0.253 µM) of 0.801. For the same compound, the relative viability (NCI-H2087; first compound 0.8 µM) was 1.17, the relative viability (NCI-H2087; first compound 2.53 µM) was 1.17 and the relative viability (NCI-H2087; first compound 8 µM) was 1.28. It also gave a relative viability (NCI-H2405) of 1.02.

From the supplement of paper PMC10307832
